According to patent US10045985B2, “Heteroaryl compounds as BTK inhibitors and uses thereof” (Merck Patent GmbH, priority 2015, dated 2018):
pIC50: −log10 of the molar value.

Tests used:
[1] = test system: anti-IgM-induced expression of CD69 in human peripheral blood mononuclear cells (PBMCs); assay: Assay C: time dependent PMBC IC50 assay (anti-IgM-induced CD69 expression on CD19 positive cells); type: cell-based; conditions: PBMC, 1 h pre-treatment, anti-IgM overnight, CD69 on CD19 positive B cells
From the text: Assay C: Time Dependent PMBC IC50 Assay
Btk is critical for mediating the signalling of B cell antigen receptor (BCR) after anti-IgM stimulation. Based on this principle, a functional cell-based assay was established to determine the potency of compounds at inhibiting anti-IgM-induced expression of CD69, a downstream BCR signaling event, in freshly isolated human peripheral blood mononuclear cells (PBMCs). In the assay, a 90 al PBMC suspension containing 2.5×10^5 cells was pre-treated with 10 al of test compound at various concentrations for an hour, and then incubated overnight (approximately 16-18 hours) with 5 μl 420 μg/ml affiniPure F(ab′)2 fragment goat anti-human IgM Fc fragment per well (Dianova, Cat. No.: 109-006-129). After the incubation, the cells were washed and immunostained with an APC-labeled mouse anti-human CD69 (BD Biosciences; clone: FN50), a PerCP-Cy5.5 labelled mouse anti-human CD19 (BD Biosciences; clone: SJ25C1) and a FITC-labelled mouse anti-human CD3 (BD Biosciences; clone: HIT3a), and fixed for flow cytometric analysis of CD69 expression on CD19 positive cells (B cells). The percentage of CD69 expressing CD19 positive cells was plotted against the concentrations of test compounds to obtain a concentration response curve, and calculate an IC50 value as a measure of the potency of test compounds in the assay.

full-length human BTK = molecular target: T1, full-length human BTK (Homo sapiens, UniProt Q06187); assay: Assay A: microfluidic off-chip mobility shift assay for potency against BTK enzyme; type: biochemical; conditions: 90 min at 27° C.
T1 construct: full-length human BTK (08-080) from CarnaBio USA, Inc; purchased CarnaBio USA, Inc., Natick, Mass; 08-080
From the text: Assay A: Microfluidic Off-Chip Mobility Shift Assay Protocol for Potency Assessment Against BTK Enzyme
The protocol below describes microfluidic, off-chip mobility shift kinase assay to measure inherent potency of compounds against BTK enzyme. The mechanics of the assay platform are best described by the vendor (Caliper Life Sciences, a PerkinElmer Company, Hopkinton, Mass.) on their website at the following URL:
Briefly, 2.5× stocks of full-length human BTK (08-080) from CarnaBio USA, Inc., Natick, Mass., 1.6×ATP and appropriate kinKDR peptide substrate (FITC-AHA-EEPLYWSFPAKKK-NH2; developed in-house) were prepared in kinase reaction buffer consisting of 25 mM MgCl2, 0.015% Brij-35 (30%), 100 mM Hepes, pH 7.5, and 10 mM DTT.
5 uL of enzyme buffer and 7.5 uL of ATP/kinKDR peptide substrate mix were added to Matrix (#115304) 384-well, sterile, polypropylene plates (Thermo Fisher Scientific, Hudson, N.H.) with 125 nL of serially diluted compounds prepared in 100% DMSO, and incubated for 90 min. at 27° C. following the incubation period, reactions were stopped by adding 60 uL stop buffer consisting of 100 mM Hepes, pH 7.5, 0.015% Brij-35 (30%), 0.277% Coating Reagent #3 (Caliper Life Sciences, Mountain View, Calif.), 5% DMSO. Stopped reactions were monitored at −2 PSI, −3000 V/−700 V in a LabChip 3000 plate reader from Caliper Life Sciences, a PerkinElmer Company (Hopkinton, Mass.), and the activity was measured by off-chip mobility shift assay measuring the charge/mass difference between substrate and product resulting from peptide phosphorilation. IC50 and efficacy were determined by plotting log [Inhibitor] vs. % Activity in GeneData Screener (Basel, Switzerland).

[2] = molecular target: T2, BTK C481S enzyme (His-TEV-hsBTK(328-659)(C481S)) (Homo sapiens, UniProt Q06187, C481S); assay: Assay B: microfluidic off-chip mobility shift assay for potency against BTK C481S enzyme; type: biochemical; conditions: 90 min at 25° C.
T2 construct: His-TEV-hsBTK(328-659)(C481S); His (N); TEV cleavage site (N)
From the text: Assay B: Microfluidic Off-Chip Mobility Shift Assay Protocol for Potency Assessment Against BTK C481S Enzyme
The protocol below describes a microfluidic, off-chip mobility shift kinase assay to measure inherent potency of compounds against BTK C481S enzyme. The mechanics of the assay platform are described by the vendor (PerkinElmer, Hopkinton, Mass.) on their website at the following URL: http://caliperls.com.
Briefly, 2.5× stocks of His-TEV-hsBTK(328-659)(C481S) from the Merck Serono Protein Purification Laboratory in Darmstadt, Germany (PCS, Q27/234), 1.6×ATP and appropriate KinKDR peptide substrate (FITC-AHA-EEPLYWSFPAKKK-NH2; Tufts University Core Facility custom synthesis) were prepared in kinase reaction buffer consisting of 25 mM MgCl2, 0.015% Brij-35 (30%), 100 mM HEPES, pH 7.5, and 10 mM DTT.
5 uL of enzyme buffer and 7.5 uL of ATP/KinKDR peptide substrate mix were added to Matrix (#4315) 384-well, sterile, flat-bottom polypropylene plates (Thermo Fisher Scientific, Hudson, N.H.) with 125 nL of serially diluted compounds prepared in 100% DMSO, and incubated for 90 min. at 25° C. Following the incubation period, reactions were terminated by adding 65 uL quench buffer consisting of 100 mM HEPES, pH 7.5, 0.015% Brij-35 (30%), 0.277% Coating Reagent #3 (PerkinElmer, Mountain View, Calif.), 5% DMSO. Terminated reactions were monitored at −2 PSI, −3000 V/−700 Volts in a LabChip 3000 plate reader from Caliper Life Sciences, a PerkinElmer Company (Hopkinton, Mass.), and the activity was quantified by laser-induced fluorescence measuring the charge/mass difference between substrate and product resulting from peptide phosphorylation. IC50 and efficacy were determined by plotting log [Inhibitor] vs. % Activity in GeneData Screener (Basel, Switzerland).

T2 sequence (Q06187 328-659 C481S): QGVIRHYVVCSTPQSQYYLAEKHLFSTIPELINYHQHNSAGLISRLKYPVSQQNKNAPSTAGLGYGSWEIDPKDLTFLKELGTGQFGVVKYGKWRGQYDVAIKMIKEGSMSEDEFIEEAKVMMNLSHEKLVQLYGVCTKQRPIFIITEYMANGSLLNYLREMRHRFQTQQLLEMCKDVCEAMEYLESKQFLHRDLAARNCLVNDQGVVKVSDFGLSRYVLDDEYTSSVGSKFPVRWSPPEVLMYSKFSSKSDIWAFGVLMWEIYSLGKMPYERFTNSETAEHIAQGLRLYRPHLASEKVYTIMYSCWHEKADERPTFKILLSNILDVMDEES
T1 sequence (Q06187 whole entry): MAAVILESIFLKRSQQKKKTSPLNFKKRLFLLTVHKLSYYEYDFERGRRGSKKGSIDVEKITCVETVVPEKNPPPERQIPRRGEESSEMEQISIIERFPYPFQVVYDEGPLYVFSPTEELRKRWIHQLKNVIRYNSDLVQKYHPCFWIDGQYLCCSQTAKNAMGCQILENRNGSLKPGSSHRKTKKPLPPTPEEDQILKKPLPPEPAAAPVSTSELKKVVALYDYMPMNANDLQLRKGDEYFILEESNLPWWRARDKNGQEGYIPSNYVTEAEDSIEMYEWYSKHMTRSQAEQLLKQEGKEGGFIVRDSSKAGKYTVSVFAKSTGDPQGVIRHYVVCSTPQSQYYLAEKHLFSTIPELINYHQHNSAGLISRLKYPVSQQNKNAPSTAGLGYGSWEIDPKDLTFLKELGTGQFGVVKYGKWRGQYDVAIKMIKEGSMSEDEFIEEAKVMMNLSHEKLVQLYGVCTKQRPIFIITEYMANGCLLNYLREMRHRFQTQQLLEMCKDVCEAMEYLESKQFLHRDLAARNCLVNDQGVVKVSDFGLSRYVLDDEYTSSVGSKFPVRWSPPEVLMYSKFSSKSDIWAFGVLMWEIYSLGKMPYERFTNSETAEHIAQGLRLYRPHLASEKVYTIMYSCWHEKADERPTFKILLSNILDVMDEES

What does the source list for COCCOc1ccc(Nc2ncc(F)c(NC3CCCC(NC(=O)c4ccc(C(C)(C)C)cc4)C3O)n2)cc1 (racemic) [Compound 16, 4-(tert-butyl)-N-(3-((5-fluoro-2-((4-(2-methoxyethoxy)phenyl)amino)pyrimidin-4-yl)amino)-2-hydroxycyclohexyl)benzamide]?
pIC50 [1]: 5.30 to 6.00; pIC50 (full-length human BTK): > 7.00; pIC50 [2]: > 7.00

What does the source list for COCCOc1ccc(Nc2ncc(F)c(NC3CCCC(NC(=O)c4ccc(C5CC5)cc4)C3)n2)cc1 (centres unmarked) [Compound 10, 4-cyclopropyl-N-(3-((5-fluoro-2-((4-(2-methoxyethoxy)phenyl)amino)pyrimidin-4-yl)amino)cyclohexyl)benzamide]?
pIC50 [1]: < 5.30; pIC50 (full-length human BTK): 6.00 to 7.00; pIC50 [2]: 6.00 to 7.00

With COCCOc1ccc(Nc2ncc(F)c(N[C@@H]3CCC[C@@H](NC(=O)c4ccc(C(C)(C)C)cc4)C3O)n2)cc1 (some centres unmarked) [Compound 24] as the compound, how does the pIC50 (full-length human BTK) read?
The pIC50 was greater than 7.00.

And the pIC50 [2]?
Its pIC50 is greater than 7.00.
